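Five compound concentrations were applied to cells in 96-well plates for 48 hours; endpoints were derived by simple linear interpolation of the resulting dose-response curve. At the GI50, growth is halved.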 Active and inactive are the calls of the source. No stated cut-off is given here; in the data, active = GI50 up to about 1.1 µM and inactive = higher.
Experiments:
Experiment in all cases: DTP human tumour cell line panel, 48 h
MDA-N = system: MDA-N
HOP-92 = system: HOP-92
MDA-MB-435 = system: MDA-MB-435
EKVX = system: EKVX
SNB-19 = system: SNB-19
SK-OV-3 = system: SK-OV-3
SW-620 = system: SW-620
CCRF-CEM = system: CCRF-CEM
MOLT-4 = system: MOLT-4
NCI-H23 = system: NCI-H23
UACC-62 = system: UACC-62
SR = system: SR
SF-295 = system: SF-295
COLO 205 = system: COLO 205
OVCAR-3 = system: OVCAR-3
SK-MEL-5 = system: SK-MEL-5
SN12C = system: SN12C
MDA-MB-231 = system: MDA-MB-231
SK-MEL-2 = system: SK-MEL-2
MCF7 = system: MCF7

Measured: GI50

CN(C)CCCN1c2ccc([N+](=O)[O-])cc2CCc2cccc([N+](=O)[O-])c21
inactive: MDA-N 14.8 µM | HOP-92 11 µM | MDA-MB-435 14.6 µM | EKVX 16.1 µM | SNB-19 17.5 µM | SK-OV-3 14.8 µM | SW-620 16.1 µM | CCRF-CEM 16.7 µM | MOLT-4 15.8 µM | NCI-H23 15.9 µM | UACC-62 3.37 µM | SR 35.2 µM | SF-295 15 µM | COLO 205 12.8 µM | OVCAR-3 15.4 µM | SK-MEL-5 15.2 µM | SN12C 15.1 µM | MDA-MB-231 13.1 µM | SK-MEL-2 18.7 µM

S=c1oc(CCCCCCCCc2nn(CNc3ccc(Cl)cc3)c(=S)o2)nn1CNc1ccc(Cl)cc1
inactive: MDA-N 43.4 µM | MCF7 > 100 µM | HOP-92 > 100 µM | MDA-MB-435 10.4 µM | EKVX > 100 µM | SNB-19 > 100 µM | SK-OV-3 > 100 µM | SW-620 > 100 µM | MOLT-4 > 100 µM | NCI-H23 99.3 µM | UACC-62 3.88 µM | SF-295 4.92 µM | COLO 205 7.38 µM | SK-MEL-5 3.27 µM | SN12C > 100 µM | MDA-MB-231 > 100 µM | SK-MEL-2 > 100 µM

Cc1ccc([N+](=O)[O-])c2c(NCC(O)CO)ccnc12 (configuration not stated)
inactive: MDA-N 42.3 µM | MCF7 32.1 µM | HOP-92 34.8 µM | MDA-MB-435 71.6 µM | EKVX 19.8 µM | SNB-19 90.8 µM | SK-OV-3 > 100 µM | SW-620 49.2 µM | CCRF-CEM 83.9 µM | MOLT-4 > 100 µM | NCI-H23 41.8 µM | UACC-62 30.3 µM | SR 95.1 µM | SF-295 42.1 µM | COLO 205 25.5 µM | OVCAR-3 36.1 µM | SK-MEL-5 18.6 µM | SN12C 75.3 µM | SK-MEL-2 14.3 µM

Oc1ccc(Cl)cc1/N=N\c1c(O)ccc2ccccc12
inactive: MDA-N > 100 µM | HOP-92 > 100 µM | MDA-MB-435 > 100 µM | EKVX > 100 µM | SNB-19 > 100 µM | SK-OV-3 > 100 µM | SW-620 > 100 µM | CCRF-CEM > 100 µM | MOLT-4 35 µM | NCI-H23 > 100 µM | UACC-62 > 100 µM | SR > 100 µM | SF-295 > 100 µM | COLO 205 > 100 µM | OVCAR-3 > 100 µM | SK-MEL-5 92.7 µM | SN12C > 100 µM | MDA-MB-231 > 100 µM | SK-MEL-2 > 100 µM

COC(=O)C1(C(=O)OC)N=C(C)OC1/C=C/c1ccccc1 (configuration not stated)
inactive: MDA-N > 100 µM | MCF7 > 100 µM | HOP-92 > 100 µM | MDA-MB-435 > 100 µM | EKVX > 100 µM | SNB-19 > 100 µM | SK-OV-3 > 100 µM | SW-620 > 100 µM | CCRF-CEM 75.3 µM | MOLT-4 > 100 µM | NCI-H23 > 100 µM | UACC-62 > 100 µM | SR > 100 µM | SF-295 > 100 µM | COLO 205 > 100 µM | OVCAR-3 > 100 µM | SK-MEL-5 > 100 µM | SN12C > 100 µM | SK-MEL-2 > 100 µM

CC(=O)CC1(O)C(=O)c2c(Br)sc(Br)c2C1=O
inactive: MDA-N 22.3 µM | MCF7 30.1 µM | HOP-92 18.8 µM | MDA-MB-435 20 µM | EKVX 20 µM | SNB-19 55.5 µM | SK-OV-3 36.8 µM | SW-620 25.1 µM | CCRF-CEM 15.1 µM | MOLT-4 32.4 µM | NCI-H23 19.5 µM | UACC-62 21 µM | SR 21.1 µM | SF-295 > 100 µM | COLO 205 18.7 µM | OVCAR-3 16.9 µM | SK-MEL-5 18.4 µM | SN12C 19.4 µM | SK-MEL-2 22.2 µM

Source: ChEMBL document CHEMBL1201862, “PubChem BioAssay data set” (2004)
